Laboratory results from patent US12091425B2 (AMGEN INC., priority 2016, dated 2024).

Experiments:
[1] = system: OPM-2 human multiple myeloma cell line; experiment: Cell Viability Assay (OPM-2 10 FBS); format: cell-based; details: OPM-2 cells, CellTiter-Glo
Method in brief: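 IC50 from 4-parameter logistic fit of CellTiter-Glo luminescence. 3000 cells/well, 10% FBS medium, serial compound dilutions, 16 h, 37 °C/5% CO2; read 25 min post-reagent.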

[2] = biological target: T1, Mcl-1/Bim interaction, recombinant human Mcl-1 (171-327) (Homo sapiens, UniProt Q07820); experiment: Cell free Mcl-1: Bim Affinity Assay (Mcl-1 HTRF); format: binding
T1 construct: made in house
Method in brief: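 TR-FRET competition assay with biotinylated human Bim peptide (residues 51-76); reaction plates incubated overnight before reading. IC50 values came from duplicate data fitted to a four-parameter sigmoidal competition curve.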

[3] = Homo sapiens, OPM-2, 16 h, 16 h
[4] = TR-FRET, 0.1 nM Mcl-1 (171-327), 0.05 nM biotin-Bim (51-76)
[5] = cell free Mcl-1:Bim TR-FRET, recombinant human Mcl-1 (171-327)
[6] = Homo sapiens, OPM-2, 16 h, 16 h incubation

T1 sequence (Q07820 171-327): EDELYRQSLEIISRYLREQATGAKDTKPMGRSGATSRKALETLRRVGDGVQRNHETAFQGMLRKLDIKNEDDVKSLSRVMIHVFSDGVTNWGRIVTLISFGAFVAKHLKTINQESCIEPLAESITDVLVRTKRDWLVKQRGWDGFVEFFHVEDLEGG

IC50 [1, 3]	IC50 [2, 4]	IC50 [2, 5]	IC50 [1, 6]	Structure (SMILES)	IC50 ([1]; 16 h)
572 nM	0.46 nM			CO[C@H]1/C=C/C[C@H]2CC[C@@H]2S(=O)(=O)NC(=O)c2ccc3c(c2)N(C[C@@H]2CC[C@H]21)C[C@@]1(CCCc2cc(Cl)ccc21)CO3 [Example 95, (1S,3′R,6′R,7′S,8′E,11′R,14′S)-6-chloro-7′-methoxy-3,4-dihydro-2H,17′H-spiro[naphthalene-1,24′-[22]oxa[15]thia[1,16]diazapentacyclo[16.7.2.0^3,6.0^11,14.0^21,26]heptacosa[8,18,20,26]tetraen]-17′-one 15′,15′-dioxide]	
1150 nM	0.998 nM			C[C@@H]1[C@@H](C)C[C@H](CCO)/C=C/[C@@H]2CC[C@H]2CN2C[C@@]3(CCCc4cc(Cl)ccc43)COc3ccc(cc32)C(=O)NS1(=O)=O [Example 113, (1S,3′R,6′S,7′E,9′R,11′S,12′R)-6-chloro-9′-(2-hydroxyethyl)-11′,12′-dimethyl-3,4-dihydro-2H,15′H-spiro[naphthalene-1,22′-[20]oxa[13]thia[1,14]diazatetracyclo[14.7.2.0^3,6.0^19,24]pentacosa[7,16,18,24]tetraen]-15′-one 13′,13′-dioxide]	
6440 nM	38.5 nM			COc1ccc(CN2[C@@H](C)C/C=C\[C@H](O)[C@@H]3CC[C@H]3CN3C[C@@]4(CCCc5cc(Cl)ccc54)COc4ccc(cc43)C(=O)NS2(=O)=O)cc1 (single isomer, unassigned) [Example 81]	
2210 nM	3.62 nM			C[C@H]1C/C=C\[C@H](O)[C@@H]2CC[C@H]2CN2C[C@@]3(CCCc4cc(Cl)ccc43)COc3ccc(cc32)C(=O)NS(=O)(=O)N1C[C@@H]1CCCO1 (single isomer, unassigned) [Example 50]	
154 nM		1.45 nM		CC1CC=CC(O)C2CCC2CN2CC3(CCCc4cc(Cl)ccc43)COc3ccc(cc32)C(=O)NS(=O)(=O)C1Cc1ccccc1 (single isomer, unassigned) [Example 648]	
878 nM		0.187 nM		Cc1nnc(CCC2CCC=CC(O)C3CCC3CN3CC4(CCCc5cc(Cl)ccc54)COc4ccc(cc43)C(=O)NS2(=O)=O)o1 (single isomer, unassigned) [Example 632]	
3400 nM	3.6 nM			COCC[C@@H]1/C=C/[C@@H]2CC[C@H]2CN2C[C@@]3(CCCc4cc(Cl)ccc43)COc3ccc(cc32)C(=O)NS(=O)(=O)[C@H](C)[C@@H](C)C1 [Example 114, (1S,3′R,6′S,7′E,9′R,11′S,12′R)-6-chloro-9′-(2-methoxyethyl)-11′,12′-dimethyl-3,4-dihydro-2H,15′H-spiro[naphthalene-1,22′-[20]oxa[13]thia[1,14]diazatetracyclo[14.7.2.0^3,6.0^19,24]pentacosa[7,16,18,24]tetraen]-15′-one 13′,13′-dioxide]	
1110 nM	0.0929 nM			C[C@@H]1[C@@H](C)C/C=C/[C@H](OCC(=O)O)[C@@H]2CC[C@H]2CN2C[C@@]3(CCCc4cc(Cl)ccc43)COc3ccc(cc32)C(=O)NS1(=O)=O [Example 292, (((1S,3′R,6′R,7′S,8′E,11′S,12′R)-6-chloro-11′,12′-dimethyl-13′,13′-dioxido-15′-oxo-3,4-dihydro-2H-spiro[naphthalene-1,22′-[20]oxa[13]thia[1,14]diazatetracyclo[14.7.2.0^3,6.0^19,24]pentacosa [8,16,18,24]tetraen]-7′-yl)oxy)acetic acid]	
	0.396 nM			CC1CC(C)CS(=O)(=O)NC(=O)c2ccc3c(c2)N(CC2CCC2C(O)C1)CC1(CCCc2cc(Cl)ccc21)CO3 (single isomer, unassigned) [Example 272]	1190 nM
232 nM		1.82 nM		C[C@@H]1COCCN1CCO[C@H]1/C=C/C[C@H](C)[C@@H](C)S(=O)(=O)NC(=O)c2ccc3c(c2)N(C[C@@H]2CC[C@H]21)C[C@@]1(CCCc2cc(Cl)ccc21)CO3 [Example 523, (1S,3′R,6′R,7′S,8′E,11′S,12′R)-6-chloro-11′,12′-dimethyl-7′-(2-((3R)-3-methyl-4-morpholinyl)ethoxy)-3,4-dihydro-2H,15′H-spiro[naphthalene-1,22′-[20]oxa[13]thia[1,14]diazatetracyclo[14.7.2.0^3,6.0^19,24]pentacosa [8,16,18,24]tetraen]-15′-one 13′,13′-dioxide]	
	1.49 nM			COCCO[C@H]1/C=C/C[C@H](C)[C@H](COC)S(=O)(=O)NC(=O)c2ccc3c(c2)N(C[C@@H]2CC[C@H]21)C[C@@]1(CCCc2cc(Cl)ccc21)CO3 (single isomer, unassigned) [Example 464]	650 nM
23100 nM	13.1 nM			O=C1NS(=O)(=O)CCCCCC[C@@H](O)[C@@H]2CC[C@H]2CN2C[C@@]3(CCCc4cc(Cl)ccc43)COc3ccc1cc32 [Example 228, (1S,3′R,6′R,7′R)-6-chloro-7′-hydroxy-3,4-dihydro-2H,16′H-spiro[naphthalene-1,23′-[21]oxa[14]thia[1,15]diazatetracyclo[15.7.2.0^3,6.0^20,25]hexacosa[17,19,25]trien]-16′-one 14′,14′-dioxide]	
	0.476 nM		270 nM	CC[C@@H]1CC/C=C/[C@H](OCc2ncco2)[C@@H]2CC[C@H]2CN2C[C@@]3(CCCc4cc(Cl)ccc43)COc3ccc(cc32)C(=O)NS1(=O)=O [Example 986, (1S,3′R,6′R,7′S,8′E,12′R)-6-chloro-12′-ethyl-7′-(1,3-oxazol-2-ylmethoxy)-3,4-dihydro-2H,15′H-spiro[naphthalene-1,22′-[20]oxa[13]thia[1,14]diazatetracyclo[14.7.2.0^3,6.0^19,24]pentacosa [8,16,18,24]tetraen]-15′-one 13′,13′-dioxide]	
	0.339 nM		310 nM	COCCO[C@H]1/C=C/[C@H](C)C[C@@H](C)S(=O)(=O)NC(=O)c2ccc3c(c2)N(C[C@@H]2CC[C@H]21)C[C@@]1(CCCc2cc(Cl)ccc21)CO3 [Example 1017, (1S,3′R,6′R,7′S,8′E,10′R,12′R)-6-chloro-7′-(2-methoxyethoxy)-10′,12′-dimethyl-3,4-dihydro-2H,15′H-spiro[naphthalene-1,22′-[20]oxa[13]thia[1,14]diazatetracyclo[14.7.2.0^3,6.0^19,24]pentacosa [8,16,18,24]tetraen]-15′-one 13′,13′-dioxide]	
	0.232 nM		5590 nM	CC[C@@H]1CC/C=C/[C@H](OCCC(=O)O)[C@@H]2CC[C@H]2CN2C[C@@]3(CCCc4cc(Cl)ccc43)COc3ccc(cc32)C(=O)NS1(=O)=O [Example 1008, 3-(((1S,3′R,6′R,7′S,8′E,12′R)-6-chloro-12′-ethyl-13′,13′-dioxido-15′-oxo-3,4-dihydro-2H-spiro[naphthalene-1,22′-[20]oxa[13]thia[1,14]diazatetracyclo[14.7.2.0^3,6.0^19,24]pentacosa [8,16,18,24]tetraen]-7′-yl)oxy)propanoic Acid]	
329 nM	0.54 nM			CO[C@H]1/C=C/C[C@H](CF)[C@@H](C)S(=O)(=O)NC(=O)c2ccc3c(c2)N(C[C@@H]2CC[C@H]21)C[C@@]1(CCCc2cc(Cl)ccc21)CO3 [Example 5, (1S,3′R,6′R,7′S,8′E,11′R,12′R)-6-chloro-11′-(fluoromethyl)-7′-methoxy-12′-methyl-3,4-dihydro-2H,15′H-spiro[naphthalene-1,22′-[20]oxa[13]thia[1,14]diazatetracyclo[14.7.2.0^3,6.0^19,24]pentacosa [8,16,18,24]tetraen]-15′-one 13′,13′-dioxide]	
	0.617 nM		1120 nM	CNC(=O)C[C@@H]1/C=C/[C@@H]2CC[C@H]2CN2C[C@@]3(CCCc4cc(Cl)ccc43)COc3ccc(cc32)C(=O)NS(=O)(=O)[C@H](C)[C@@H](C)C1 [Example 1073, 2-((1S,3′R,6′S,7′E,9′R,11′S,12′R)-6-chloro-11′,12′-dimethyl-13′,13′-dioxido-15′-oxo-3,4-dihydro-2H-spiro[naphthalene-1,22′-[20]oxa[13]thia[1,14]diazatetracyclo[14.7.2.0^3,6.0^19,24]pentacosa [7,16,18,24]tetraen]-9′-yl)-N-methylacetamide]	

Structure (SMILES)	IC50 [1, 3]	IC50 [2, 4]	IC50 [2, 5]	IC50 [1, 6]	IC50 ([1]; 16 h)
COCCO[C@H]1/C=C/C[C@@H](C)CS(=O)(=O)NC(=O)c2ccc3c(c2)N(C[C@@H]2CC[C@H]21)C[C@@]1(CCCc2cc(Cl)ccc21)CO3 (single isomer, unassigned) [Example 375]		7.73 nM			5700 nM
CCOC[C@H]1[C@@H](C)C/C=C/[C@H](O)[C@@H]2CC[C@H]2CN2C[C@@]3(CCCc4cc(Cl)ccc43)COc3ccc(cc32)C(=O)NS1(=O)=O (single isomer, unassigned) [Example 467]		1.45 nM			1510 nM
CO[C@H]1/C=C/CC[C@@H](CCO)S(=O)(=O)NC(=O)c2ccc3c(c2)N(C[C@@H]2CC[C@H]21)C[C@@]1(CCCc2cc(Cl)ccc21)CO3 (single isomer, unassigned) [Example 617]			0.221 nM		11500 nM
O=C1NS(=O)(=O)[C@H]2CCCC(C2)[C@H](O)[C@@H]2CC[C@H]2CN2C[C@@]3(CCCc4cc(Cl)ccc43)COc3ccc1cc32 (single isomer, unassigned) [Example 364]		3.12 nM			30900 nM
COCCO[C@H]1/C=C/C[C@@H]2C[C@H]2S(=O)(=O)NC(=O)c2ccc3c(c2)N(C[C@@H]2CC[C@H]21)C[C@@]1(CCCc2cc(Cl)ccc21)CO3 (single isomer, unassigned) [Example 786]			1.03 nM		1480 nM
